Experimental data reported in ChEMBL document CHEMBL4732135, “Structural and mechanistic insights into the inhibition of amyloid-β aggregation by Aβ fragment derived synthetic peptides” (Eur J Med Chem, 2021).
Square brackets hold non-standard residues; d marks the D form. Peptide text beside a SMILES is read from it. ξ: configuration not given here. Bip = N[C@@H](Cc1ccc(-c2ccccc2)cc1)C(=O)O; Oic(3aξ,7aξ) = O=C(O)[C@@H]1CC2CCCCC2N1; Phe(4-NH2) = Nc1ccc(C[C@H](N)C(=O)O)cc1; Gly(cPent) = N[C@H](C(=O)O)C1CCCC1; NMeL = CN[C@@H](CC(C)C)C(=O)O; Tle = CC(C)(C)[C@H](N)C(=O)O; NMeNva = CCC[C@H](NC)C(=O)O; Abu = CC[C@H](N)C(=O)O

Assays:
PC-12 [1] = assay: Neuroprotective activity against amyloid beta 42-induced toxicity in rat PC-12 cells assessed as cell viability at 10 uM measured after 6 hrs by MTT assay (reference value: 74.05%); assay type: functional; conditions: read-out: Activity
PC-12 [2] = assay: Neuroprotective activity against amyloid beta 42-induced toxicity in rat PC-12 cells assessed as cell viability at 4 uM measured after 6 hrs by MTT assay (reference value: 74.05%); assay type: functional; conditions: read-out: Activity
[3] = molecular target: Amyloid-beta precursor protein (Homo sapiens) (UniProt P05067); assay: Inhibition of amyloid beta (1 to 42) (unknown origin) assessed as reduction in peptide aggregation at 2 uM measured after 24 hrs by thioflavin-T fluorescence assay relative to control
Chain of Amyloid-beta precursor protein (Homo sapiens) (P05067 whole entry): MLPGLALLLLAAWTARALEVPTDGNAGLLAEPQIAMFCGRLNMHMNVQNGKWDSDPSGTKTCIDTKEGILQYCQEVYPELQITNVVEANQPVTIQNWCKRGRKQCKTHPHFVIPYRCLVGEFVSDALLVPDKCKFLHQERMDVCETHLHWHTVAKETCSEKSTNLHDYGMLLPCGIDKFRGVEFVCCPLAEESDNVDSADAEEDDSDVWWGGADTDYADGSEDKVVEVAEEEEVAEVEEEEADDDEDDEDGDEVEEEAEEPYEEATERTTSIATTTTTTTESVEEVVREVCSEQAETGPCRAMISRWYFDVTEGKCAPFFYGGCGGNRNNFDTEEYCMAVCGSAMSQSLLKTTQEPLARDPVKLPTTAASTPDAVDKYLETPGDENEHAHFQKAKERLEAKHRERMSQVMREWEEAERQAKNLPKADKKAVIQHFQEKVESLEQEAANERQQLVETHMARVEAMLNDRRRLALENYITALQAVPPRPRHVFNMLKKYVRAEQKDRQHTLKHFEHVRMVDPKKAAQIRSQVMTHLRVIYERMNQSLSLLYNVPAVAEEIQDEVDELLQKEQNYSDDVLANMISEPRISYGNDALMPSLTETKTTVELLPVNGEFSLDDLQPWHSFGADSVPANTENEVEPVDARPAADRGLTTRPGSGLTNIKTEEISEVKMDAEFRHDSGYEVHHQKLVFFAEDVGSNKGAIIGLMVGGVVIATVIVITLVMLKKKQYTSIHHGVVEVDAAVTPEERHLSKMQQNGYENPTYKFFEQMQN

[4] = molecular target: Amyloid-beta precursor protein (Homo sapiens) (UniProt P05067); assay: Inhibition of amyloid beta (1 to 42) (unknown origin) assessed as reduction in peptide aggregation at 4 uM measured after 24 hrs by thioflavin-T fluorescence assay relative to control
PC-12 [5] = assay: Neuroprotective activity against amyloid beta 42-induced toxicity in rat PC-12 cells assessed as cell viability at 2 uM measured after 6 hrs by MTT assay (reference value: 74.05%); assay type: functional; conditions: read-out: Activity
[6] = molecular target: Amyloid-beta precursor protein (Homo sapiens) (UniProt P05067); assay: Inhibition of amyloid beta (1 to 42) (unknown origin) assessed as reduction in peptide aggregation at 10 uM measured after 24 hrs by thioflavin-T fluorescence assay relative to control

Row | SMILES | viability at 10 µM (PC-12 [1]) | viability at 4 µM (PC-12 [2]) | inhibition [3] | inhibition [4] | viability at 2 µM (PC-12 [5]) | inhibition [6]
1 | CC(C)[C@H](N)C(=O)N[C@H](C(=O)N[C@H](C(=O)N[C@@H](C)C(=O)O)C1CCCC1)C(C)C (H-VV[Gly(cPent)]A-OH) | 84.2% | 91.9% | 17.1% | 40.3% | 85.6% | 47.8%
2 | CC[C@H](C)[C@H](NC(=O)[C@@H](NC(=O)[C@@H](N)C(C)C)C(C)(C)C)C(=O)N[C@@H](C)C(=O)O (H-V[Tle]IA-OH) | 100% | 91.3% | 100% | 100% | 89.3% | 100%
3 | CC[C@H](C)[C@H](NC(=O)[C@@H](NC(=O)[C@@H](N)Cc1ccc(-c2ccccc2)cc1)C(C)C)C(=O)N[C@@H](C)C(=O)O (H-[Bip]VIA-OH) | 83.2% | 80.6% | 26.4% | 34.7% | 86.5% | 12.9%
4 | CC(C)[C@H](N)C(=O)N[C@H](C(=O)N1C2CCCCC2C[C@H]1C(=O)N[C@@H](C)C(=O)O)C(C)C (stereo not given in full) (H-VV[Oic(3aξ,7aξ)]A-OH) | 86.1% | 78.4% | 37.2% | 19.3% | 60% | 46.4%
5 | CC[C@H](NC(=O)[C@@H](N)C(C)C)C(=O)N[C@H](C(=O)N[C@@H](C)C(=O)O)[C@@H](C)CC (H-V[Abu]IA-OH) | 82.7% | 70.8% | 0% | 5.3% | 90.1% | 24.1%
6 | CC[C@H](NC(=O)[C@@H](NC(=O)[C@@H](N)C(C)C)C(C)C)C(=O)N[C@@H](C)C(=O)O (H-VV[Abu]A-OH) | 89.2% | 94.9% | 0% | 0% | 89.1% | 4.4%
7 | CC[C@H](C)[C@H](NC(=O)[C@@H](NC(=O)C[C@H](N)c1ccccc1)C(C)C)C(=O)N[C@@H](C)C(=O)O | 58.8% | 66.3% | 50.1% | 58.2% | 69.1% | 67.3%
8 | CC[C@H](C)[C@H](NC(=O)[C@@H]1CC2CCCCC2N1C(=O)[C@@H]1CC2CCCCC2N1)C(=O)N[C@@H](C)C(=O)O (stereo not given in full) (H-[Oic(3aξ,7aξ)][Oic(3aξ,7aξ)]IA-OH) | 88.5% | 92.9% | 100% | 99.1% | 93.2% | 91.5%
9 | CC[C@H](C)[C@H](NC(=O)[C@@H](NC(=O)[C@@H](N)C(C)C)C(C)C)C(=O)N[C@@H](CCC(=O)O)C(=O)O (H-VVIE-OH) | 84.9% | 76.3% | 38.8% | 39.3% | 68.9% | 65.1%
10 | CC(C)[C@H](N)C(=O)N[C@H](C(=O)NC[C@@H]1CCCN1[C@@H](C)C(=O)O)C(C)C | 58.8% | 64.7% | 0% | 0% | 72% | 11.9%
11 | CC[C@H](C)[C@H](NC(=O)[C@@H](NC(=O)[C@@H](N)Cc1ccc(N)cc1)C(C)C)C(=O)N[C@@H](C)C(=O)O (H-[Phe(4-NH2)]VIA-OH) | 82.1% | 70.3% | 59.2% | 68.4% | 77.8% | 77.4%
12 | CCC[C@@H](C(=O)N[C@@H](C)C(=O)O)N(C)C(=O)[C@@H](NC(=O)[C@@H](N)C(C)C)C(C)C (H-VV[NMeNva]A-OH) | 82.1% | 83.7% | 22.2% | 34.9% | 87.3% | 40.8%
13 | CC[C@H](NC(=O)[C@@H](NC(=O)[C@@H](NC(=O)[C@@H](N)C(C)C)C(C)C)[C@@H](C)CC)C(=O)O (H-VVI[Abu]-OH) | 65.6% | 73.4% | 2.8% | 2% | 77.9% | 32.5%
14 | CC(C)C[C@@H](C(=O)N[C@@H](C)C(=O)O)N(C)C(=O)[C@@H](NC(=O)[C@@H](N)C(C)C)C(C)C (H-VV[NMeL]A-OH) | 84.8% | 87.2% | 31.6% | 44.1% | 96.3% | 61%
15 | CC(C)[C@H](N)C(=O)N[C@H](C(=O)N[C@H](C(=O)N[C@@H](C)C(=O)O)C(C)(C)C)C(C)C (H-VV[Tle]A-OH) | 82.7% | 69.2% | 0% | 0% | 78.1% | 0%
